Data as given in patent US5300298A, “Methods of treating obesity with purine related compounds” (The Pennsylvania Research Corporation, priority 1992, dated 1994).

Tested on: warm-blooded animal
Experiment: Example II: tested as BW1433 was tested in Example I (obesity; ratio of muscle mass to fat)
Assay type: in vivo, rats
Protocol: My initial studies were carried out following acute subcutaneous injections of the drug into male Sprague Dawley rats and into lean and into obese Zucker rats. Blood samples (100 microliter) were taken from the tail of the rats and measurements made of serum glycerol^6. Glycerol is an end product of lipolysis and thus an excellent indicator of the rate of whole body lipolysis. […] I discovered that in the absence of the Formula I compound tested, serum glycerol levels only differ slightly when comparing lean and obese animals. Since there is 3-4 times more fat in the obese animal this is good evidence for sluggish lipolysis per g of fat in the obese. The obese animals however seem to mobilize the fat at an earlier time after removal of their food supply (Table 1), since after 6 hours of fasting the obese serum glycerol levels are much higher than the lean.
Next, I studied the effect of chronic treatment with BW1433. For this purpose I employed 2 ml Alzet mini osmotic pumps. Each pump was loaded with 2 ml of a solution containing BW1433 or with vehicle (aqueous solution adjusted to pH II). The amount of BW1433 was adjusted so that the pump delivered either zero, 0.2 mg or 0.4 mg/Kg/hour to each animal. On the first day the animals had the pumps implanted and were given a priming (2 mg/Kg or 4 mg/Kg) dose of the antagonist. Blood was taken prior to surgery and six hours after the animals were removed from their food supply. On each subsequent day animals had free access to food and water overnight, then their food removed for six hours, and a blood sample taken.
In addition to taking blood samples for glycerol analysis, each animal was weighed every day for seven days. After seven days the animals were fasted overnight and a glucose tolerance test given The animals were then sacrificed and 1 ml blood sample taken for serum insulin and serum BW1433 determination drug levels. Insulin levels were measured with RIA kit (Diagnostic Products) and BW1433 levels were measured fluorometrically after HPLC separation at Burroughs Wellcome, Research Triangle Park, North Carolina. […] Nonetheless, when glucose tolerance curves were administered on day 7, drug-related differences could still be seen in all animals studied. […] This is illustrated more clearly in FIG. 4 where the area under the glucose tolerance curve is shown as a bar for each of the 6 groups of animals. […] FIG. 5 is a chart of the change in weight of treated and untreated lean and obese animals. […] The effect on weight change in each case was maximal at day 3, the day when the glycerol values peaked. Based on these remarkable results, the compounds of Formula I can be administered to obese warm-blooded animals as anti-obesity agents, or administered to farm animals to advantageously increase the ratio of muscle mass to fat therein.

Structure (SMILES) | activity in method of treating obesity in a warm-blooded animal and in increasing the ratio of muscle mass to fat in farm animals
Cn1c(=O)c2nc(-c3ccc(/C=C/C(=O)O)cc3)[nH]c2n(C)c1=O [compound 2, (E)-4-(1,2,3,6-tetrahydro-1,3-dimethyl-2,6-dioxo-9H-purin-8-yl)cinnamic acid] | active and effective
CCCn1c(=O)c2nc(-c3ccc(/C=C/C(=O)O)cc3)[nH]c2n(C)c1=O [compound 3, (E)-4-(1,2,3,6-tetrahydro-3-methyl-2,6-dioxo-1-propyl-9H-purin-8-yl)cinnamic acid] | active and effective
CCn1c(=O)c2nc(-c3ccc(/C=C/C(=O)O)cc3)[nH]c2n(CC)c1=O [compound 4, (E)-4-(1,3-diethyl-1,2,3,6-tetrahydro-2,6-dioxo-9H-purin-8-yl)cinnamic acid] | active and effective
C=CCn1c(=O)c2nc(-c3ccc(/C=C/C(=O)O)cc3)[nH]c2n(CC=C)c1=O [compound 5, (E)-4-(1,3-diallyl-1,2,3,6-tetrahydro-2,6-dioxo-9H-purin-8-yl)cinnamic acid] | active and effective
Cn1c(=O)[nH]c(=O)c2nc(-c3ccc(/C=C/C(=O)O)cc3)[nH]c21 [compound 6, (E)-4-(1,2,3,6-tetrahydro-3-methyl-2,6-dioxo-9H-purin-8-yl)cinnamic acid] | active and effective
CCn1c(=O)[nH]c(=O)c2nc(-c3ccc(/C=C/C(=O)O)cc3)[nH]c21 [compound 7, (E)-4-(3-ethyl-1,2,3,6-tetrahydro-2,6-dioxo-9H-purin-8-yl)cinnamic acid] | active and effective
CCCn1c(=O)[nH]c(=O)c2nc(-c3ccc(/C=C/C(=O)O)cc3)[nH]c21 [compound 8, (E)-4-(1,2,3,6-tetrahydro-2,6-dioxo-3-propyl-9H-purin-8-yl)cinnamic acid] | active and effective
CC(C)Cn1c(=O)[nH]c(=O)c2nc(-c3ccc(/C=C/C(=O)O)cc3)[nH]c21 [compound 9, (E)-4-(1,2,3,6-tetrahydro-3-isobutyl-2,6-dioxo-9H-purin-8-yl)cinnamic acid] | active and effective
CCCn1c(=O)n(C)c(=O)c2nc(-c3ccc(/C=C/C(=O)O)cc3)[nH]c21 [compound 10, (E)-4-(1,2,3,6-tetrahydro-1-methyl-2,6-dioxo-3-propyl-9H-purin-8-yl)cinnamic acid] | active and effective
CC(C)Cn1c(=O)n(C)c(=O)c2nc(-c3ccc(/C=C/C(=O)O)cc3)[nH]c21 [compound 11, (E)-4-(1,2,3,6-tetrahydro-3-isobutyl-1-methyl-2,6-dioxo-9H-purin-8-yl)cinnamic acid] | active and effective
CCn1c(=O)c2nc(-c3ccc(/C=C/C(=O)O)cc3)[nH]c2n(C)c1=O [compound 12, (E)-4-(1-ethyl-1,2,3,6-tetrahydro-3-methyl-2,6-dioxo-9H-purin-8-yl)cinnamic acid] | active and effective
CCCCn1c(=O)c2nc(-c3ccc(/C=C/C(=O)O)cc3)[nH]c2n(CCCC)c1=O [compound 13, (E)-4-(1,3-dibutyl-1,2,3,6-tetrahydro-2,6-dioxo-9H-purin-8-yl)cinnamic acid] | active and effective
O=C(O)/C=C/c1ccc(-c2nc3c(=O)n(Cc4ccccc4)c(=O)n(Cc4ccccc4)c3[nH]2)cc1 [compound 14, (E)-4-(1,3-dibenzyl-1,2,3,6-tetrahydro-2,6-dioxo-9H-purin-8-yl)cinnamicacid] | active and effective
CCCCn1c(=O)n(C)c(=O)c2nc(-c3ccc(/C=C/C(=O)O)cc3)[nH]c21 [compound 15, (E)-4-(3-butyl-1,2,3,6-tetrahydro-1-methyl-2,6-dioxo-9H-purin-8-yl)cinnamicacid] | active and effective
CCCCn1c(=O)c2nc(-c3ccc(/C=C/C(=O)O)cc3)[nH]c2n(C)c1=O [compound 16, (E)-4-(1-butyl-1,2,3,6-tetrahydro-3-methyl-2,6-dioxo-9H-purin-8-yl)cinnamic acid] | active and effective
Cn1c(=O)c2nc(-c3ccc(/C=C/C(=O)O)cc3)[nH]c2n(Cc2ccccc2)c1=O [compound 17, (E)-4-(3-benzyl-1,2,3,6-tetrahydro-1-methyl-2,6-dioxo-9H-purin-8-yl)cinnamic acid] | active and effective
CC(C)Cn1c(=O)c2nc(-c3ccc(/C=C/C(=O)O)cc3)[nH]c2n(CC(C)C)c1=O [compound 18, (E)-4-(1,2,3,6-tetrahydro-1,3-diisobutyl-2,6-dioxo-9H-purin-8-yl)cinnamic acid] | active and effective
Cn1c(=O)c2[nH]c(-c3ccc(/C=C/C(=O)O)cc3)nc2n(C)c1=S [compound 19, (E)-4-(1,2,3,6-tetrahydro-1,3-dimethyl-6-oxo-2-thio-9H-purin-8-yl)cinnamicacid] | active and effective
Cn1c(=O)c2nc(-c3ccc(/C=C/C(=O)O)cc3)[nH]c2n(Cc2ccc(C#N)cc2)c1=O [compound 20, (E)-4-[3-(4-cyanobenzyl)-1,2,3,6-tetrahydro-1-methyl-2,6-dioxo-9H-purin-8-yl]cinnamic acid] | active and effective
Cn1c(=O)c2nc(-c3ccc(/C=C/C(=O)O)cc3)[nH]c2n(Cc2cccc(C#N)c2)c1=O [compound 21, (E)-4-[3-(3-cyanobenzyl)-1,2,3,6-tetrahydro-1-methyl-2,6-dioxo-9H-purin-8-yl]cinnamic acid] | active and effective
CCCn1c(=O)c2nc(-c3ccc(C#CC(=O)O)cc3)[nH]c2n(CCC)c1=O [compound 22, 3-[4-(1,2,3,6-tetrahydro-2,6-dioxo-1,3-dipropyl-9H-purin-8-yl)phenyl]propiolic acid] | active and effective
Cn1c(=O)n(Cc2ccc(C#N)cc2)c(=O)c2nc(-c3ccc(/C=C/C(=O)O)cc3)[nH]c21 [compound 23, (E)-4-[1-(4-cyanobenzyl)-1,2,3,6-tetrahydro-3-methyl-2,6-dioxo-9H-purin-8-yl]cinnamic acid] | active and effective
CCCn1c(=O)n(Cc2ccccc2)c(=O)c2nc(-c3ccc(/C=C/C(=O)O)cc3)[nH]c21 [compound 24, (E)-4-(1-benzyl-1,2,3,6-tetrahydro-2,6-dioxo-3-propyl-9H-purin-8-yl)cinnamic acid] | active and effective
